Results published in ChEMBL document CHEMBL1201862, “PubChem BioAssay data set” (2004).
Active and inactive are the calls of the source.

Experiments:
[1] = molecular target: T1, Tyrosine-protein phosphatase non-receptor type 22 (Homo sapiens, UniProt Q9Y2R2); format: functional
T1 sequence (Q9Y2R2 whole entry): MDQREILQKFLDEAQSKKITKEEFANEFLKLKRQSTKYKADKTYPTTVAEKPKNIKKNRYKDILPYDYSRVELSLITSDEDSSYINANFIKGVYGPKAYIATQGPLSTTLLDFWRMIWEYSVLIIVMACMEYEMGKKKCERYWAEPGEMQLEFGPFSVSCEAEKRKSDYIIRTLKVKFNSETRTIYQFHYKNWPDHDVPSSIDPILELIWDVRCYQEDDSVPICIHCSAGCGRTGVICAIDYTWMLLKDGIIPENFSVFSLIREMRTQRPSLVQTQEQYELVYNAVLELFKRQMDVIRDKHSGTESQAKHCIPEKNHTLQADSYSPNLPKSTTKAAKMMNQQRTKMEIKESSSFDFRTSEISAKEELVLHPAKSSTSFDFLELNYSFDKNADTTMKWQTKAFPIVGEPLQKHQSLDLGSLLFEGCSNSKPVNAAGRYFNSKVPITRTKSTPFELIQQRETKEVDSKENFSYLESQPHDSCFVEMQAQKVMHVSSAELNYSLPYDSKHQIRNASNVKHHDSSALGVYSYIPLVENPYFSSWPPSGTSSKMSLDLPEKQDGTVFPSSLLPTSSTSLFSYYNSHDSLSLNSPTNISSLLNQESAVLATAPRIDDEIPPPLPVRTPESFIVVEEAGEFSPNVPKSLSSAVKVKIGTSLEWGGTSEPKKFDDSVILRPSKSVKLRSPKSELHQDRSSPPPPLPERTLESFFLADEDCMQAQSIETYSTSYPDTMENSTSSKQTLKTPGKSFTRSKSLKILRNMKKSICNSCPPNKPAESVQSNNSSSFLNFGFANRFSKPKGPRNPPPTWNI

[2] = molecular target: T2, Tyrosine-protein phosphatase non-receptor type 7 (Homo sapiens, UniProt P35236); format: functional
T2 sequence (P35236 whole entry): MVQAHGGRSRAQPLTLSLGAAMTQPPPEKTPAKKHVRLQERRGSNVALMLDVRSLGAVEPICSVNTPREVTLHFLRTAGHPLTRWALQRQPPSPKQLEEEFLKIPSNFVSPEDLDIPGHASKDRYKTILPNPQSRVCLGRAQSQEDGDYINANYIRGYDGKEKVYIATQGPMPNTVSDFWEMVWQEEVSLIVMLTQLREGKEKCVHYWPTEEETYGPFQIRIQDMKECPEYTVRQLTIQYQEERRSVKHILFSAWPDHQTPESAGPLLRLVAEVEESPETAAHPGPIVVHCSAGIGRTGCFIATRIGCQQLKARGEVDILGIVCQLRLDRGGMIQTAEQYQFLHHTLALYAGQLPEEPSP

[3] = molecular target: T1, Tyrosine-protein phosphatase non-receptor type 22; format: functional; remark: listed apart in the source
[4] = Counterscreen for AddAB inhibitors: absorbance-based bacterial cell-based high throughput dose response assay for inhibitors of bacterial viability. [Related pubchem assays (depositor defined):AID435030, AID449728, AID449731, AID488942, AID488955, AID488956]; format: functional
[5] = fluconazole-exposed Candida albicans growth modulators – fluorescence, retest, confirmation (AID 2467); format: functional, cell-based
[6] = system: Vero; assay: cells; format: functional; details: Chlorocebus sabaeus
[7] = HGIII-sPLA2 enzyme inhibition potency – biochemical, QFRET, IC50, dose response (AID 743457);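 further: green fluorescence rise as the enzyme cleaves BODIPY PC-A2 in liposomes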
[8] = molecular target: Exodeoxyribonuclease V (Escherichia coli (strain K12), UniProt P04993+P07648+P08394); assay: RecBCD inhibition via phage-restricted bacterial growth – absorbance, V66 E. coli, mutant T4 phage, counter-screen for AddAB inhibitor project, dose response (AID 492957); format: functional, cell-based, Escherichia coli str. K-12 substr. MG1655
Chain of Exodeoxyribonuclease V (P04993 whole entry): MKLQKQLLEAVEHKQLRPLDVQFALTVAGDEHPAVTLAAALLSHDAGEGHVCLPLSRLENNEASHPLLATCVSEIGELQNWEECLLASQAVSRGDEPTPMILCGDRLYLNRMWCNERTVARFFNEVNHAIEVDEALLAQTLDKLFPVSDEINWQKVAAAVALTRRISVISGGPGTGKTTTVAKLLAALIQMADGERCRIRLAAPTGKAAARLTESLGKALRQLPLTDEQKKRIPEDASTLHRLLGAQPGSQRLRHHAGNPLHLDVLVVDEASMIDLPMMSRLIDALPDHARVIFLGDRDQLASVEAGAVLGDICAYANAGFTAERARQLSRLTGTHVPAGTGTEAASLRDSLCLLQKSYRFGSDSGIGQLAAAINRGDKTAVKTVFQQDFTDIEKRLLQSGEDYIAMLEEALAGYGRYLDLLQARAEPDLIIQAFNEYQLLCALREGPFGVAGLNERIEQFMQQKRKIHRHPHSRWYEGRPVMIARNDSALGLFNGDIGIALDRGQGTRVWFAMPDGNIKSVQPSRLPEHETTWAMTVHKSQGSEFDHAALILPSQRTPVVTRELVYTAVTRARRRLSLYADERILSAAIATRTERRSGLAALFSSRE
Chain of Exodeoxyribonuclease V (P07648 whole entry): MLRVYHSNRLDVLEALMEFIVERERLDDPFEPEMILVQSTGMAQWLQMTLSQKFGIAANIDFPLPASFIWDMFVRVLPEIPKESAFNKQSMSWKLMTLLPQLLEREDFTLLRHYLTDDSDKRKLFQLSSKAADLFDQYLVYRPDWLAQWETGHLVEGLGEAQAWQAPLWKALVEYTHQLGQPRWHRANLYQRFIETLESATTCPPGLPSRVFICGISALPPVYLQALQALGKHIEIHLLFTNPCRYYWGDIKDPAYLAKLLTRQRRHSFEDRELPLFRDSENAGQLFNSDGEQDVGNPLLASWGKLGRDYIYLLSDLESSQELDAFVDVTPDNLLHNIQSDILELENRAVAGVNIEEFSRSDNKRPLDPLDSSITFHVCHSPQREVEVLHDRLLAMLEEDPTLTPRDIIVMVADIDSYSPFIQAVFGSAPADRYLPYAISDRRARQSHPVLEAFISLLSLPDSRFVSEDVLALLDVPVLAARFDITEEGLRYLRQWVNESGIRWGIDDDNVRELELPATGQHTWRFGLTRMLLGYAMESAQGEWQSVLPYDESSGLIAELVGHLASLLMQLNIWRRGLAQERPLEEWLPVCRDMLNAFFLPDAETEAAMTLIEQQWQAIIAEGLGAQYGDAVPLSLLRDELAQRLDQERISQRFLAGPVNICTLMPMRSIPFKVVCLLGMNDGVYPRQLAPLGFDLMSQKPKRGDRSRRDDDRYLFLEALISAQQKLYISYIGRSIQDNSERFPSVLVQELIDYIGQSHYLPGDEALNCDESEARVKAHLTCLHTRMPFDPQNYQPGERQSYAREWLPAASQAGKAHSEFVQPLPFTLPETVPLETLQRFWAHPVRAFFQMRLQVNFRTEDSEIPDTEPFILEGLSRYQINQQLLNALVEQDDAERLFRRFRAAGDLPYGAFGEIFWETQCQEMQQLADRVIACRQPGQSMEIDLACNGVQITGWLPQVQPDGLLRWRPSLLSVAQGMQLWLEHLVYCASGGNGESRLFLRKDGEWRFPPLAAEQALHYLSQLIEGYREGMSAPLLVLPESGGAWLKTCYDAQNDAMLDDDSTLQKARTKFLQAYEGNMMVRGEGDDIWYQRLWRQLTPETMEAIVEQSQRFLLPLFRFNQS
Chain of Exodeoxyribonuclease V (P08394 whole entry): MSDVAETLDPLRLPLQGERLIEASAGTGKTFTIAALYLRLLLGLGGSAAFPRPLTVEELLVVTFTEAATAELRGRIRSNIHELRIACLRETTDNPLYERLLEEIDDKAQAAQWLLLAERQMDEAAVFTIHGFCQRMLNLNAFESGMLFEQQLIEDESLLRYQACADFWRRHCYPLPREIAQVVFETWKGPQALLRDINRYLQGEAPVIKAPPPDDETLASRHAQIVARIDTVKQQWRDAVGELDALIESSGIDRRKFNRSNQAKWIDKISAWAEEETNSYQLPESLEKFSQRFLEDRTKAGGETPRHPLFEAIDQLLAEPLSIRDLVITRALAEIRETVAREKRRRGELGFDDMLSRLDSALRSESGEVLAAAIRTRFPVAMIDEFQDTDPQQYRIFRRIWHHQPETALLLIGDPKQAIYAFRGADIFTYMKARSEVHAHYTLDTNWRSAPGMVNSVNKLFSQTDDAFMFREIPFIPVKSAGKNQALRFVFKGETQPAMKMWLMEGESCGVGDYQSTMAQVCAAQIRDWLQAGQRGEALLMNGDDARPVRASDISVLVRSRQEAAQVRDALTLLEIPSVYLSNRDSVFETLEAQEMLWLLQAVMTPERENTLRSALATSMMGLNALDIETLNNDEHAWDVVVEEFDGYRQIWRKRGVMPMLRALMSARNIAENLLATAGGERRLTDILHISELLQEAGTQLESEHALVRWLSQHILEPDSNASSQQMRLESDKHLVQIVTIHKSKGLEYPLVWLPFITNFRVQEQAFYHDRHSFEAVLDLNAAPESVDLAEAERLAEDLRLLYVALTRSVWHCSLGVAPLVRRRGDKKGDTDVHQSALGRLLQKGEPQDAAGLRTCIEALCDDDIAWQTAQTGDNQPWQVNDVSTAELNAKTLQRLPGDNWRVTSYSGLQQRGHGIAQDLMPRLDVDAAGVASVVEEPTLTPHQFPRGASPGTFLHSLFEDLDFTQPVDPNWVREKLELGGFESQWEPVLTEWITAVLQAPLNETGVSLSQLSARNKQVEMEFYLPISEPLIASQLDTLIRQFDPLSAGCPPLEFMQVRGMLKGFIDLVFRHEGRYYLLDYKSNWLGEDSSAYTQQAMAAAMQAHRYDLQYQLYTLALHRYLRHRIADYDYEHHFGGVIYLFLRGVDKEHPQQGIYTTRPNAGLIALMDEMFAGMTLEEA

[9] = NIH-3T3 fibroblast cytotoxicity, dose response, cytotoxicity control, cell-based, fluorescence, Alamar Blue, secondary assay (AID 2327); format: functional;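 further: NIH-3T3 mouse fibroblasts cultured with fluconazole at 8 µg/mL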
[10] = MIN6 cell viability loss – mouse insulinoma, cytotoxicity control, dose response (AID 2122); format: functional;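 further: confirmatory high-throughput counterscreen run to flag cytotoxic compounds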
[11] = decrease of insulin promoter-GFP reporter – imaging, high-content screening, mouse beta cells (AID 1628); format: functional; details: MIN6
[12] = viability loss of HMLE_sh_eGFP cells – cell-based, luminescence, counter-screen for HMLE_sh_ECad selective toxicity project, dose response (AID 463074); format: functional, Homo sapiens;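 further: HMLE human mammary epithelial cells expressing control shRNA against eGFP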
[13] = Luminescence Cell-Based Dose Retest to Confirm Inhibitors of Cancer Stem Cells. [Related pubchem assays (depositor defined):AID2717, AID2721]; format: functional; details: Homo sapiens
[14] = molecular target: Sphingosine 1-phosphate receptor 3 (Homo sapiens, UniProt Q99500); assay: Late stage counterscreen assay for S1P4 antagonists: Fluorescence dose response cell-based screening assay for antagonists of the Sphingosine 1-Phosphate Receptor 3 (S1P3). [Related pubchem assays (depositor defined):AID1510, AID1524, AID1692, AID1853, AID2332, AID489009, AID489017]; format: functional
[15] = molecular target: Sphingosine 1-phosphate receptor 2 (Homo sapiens, UniProt O95136); assay: Late stage counterscreen assay for S1P4 antagonists: Fluorescence dose response cell-based screening assay for antagonists of the Sphingosine 1-Phosphate Receptor 2 (S1P2). [Related pubchem assays (depositor defined):AID1510, AID1524, AID1692, AID1853, AID2332, AID489009, AID489017]; format: functional
[16] = molecular target: Sphingosine 1-phosphate receptor 5 (Homo sapiens, UniProt Q9H228); assay: Late stage counterscreen assay for S1P4 antagonists: Fluorescence dose response cell-based screening assay for antagonists of the Sphingosine 1-Phosphate Receptor 5 (S1P5). [Related pubchem assays (depositor defined):AID1510, AID1524, AID1692, AID1853, AID2332, AID489009, AID489017]; format: functional
[17] = molecular target: Sphingosine 1-phosphate receptor 1 (Homo sapiens, UniProt P21453); assay: Late stage counterscreen assay for S1P4 antagonists: Fluorescence dose response cell-based screening assay for antagonists of the Sphingosine 1-Phosphate Receptor 1 (S1P1). [Related pubchem assays (depositor defined):AID1510, AID1524, AID1692, AID1853, AID2332, AID489009, AID489017]; format: functional
Chain of Sphingosine 1-phosphate receptor 1 (P21453 whole entry): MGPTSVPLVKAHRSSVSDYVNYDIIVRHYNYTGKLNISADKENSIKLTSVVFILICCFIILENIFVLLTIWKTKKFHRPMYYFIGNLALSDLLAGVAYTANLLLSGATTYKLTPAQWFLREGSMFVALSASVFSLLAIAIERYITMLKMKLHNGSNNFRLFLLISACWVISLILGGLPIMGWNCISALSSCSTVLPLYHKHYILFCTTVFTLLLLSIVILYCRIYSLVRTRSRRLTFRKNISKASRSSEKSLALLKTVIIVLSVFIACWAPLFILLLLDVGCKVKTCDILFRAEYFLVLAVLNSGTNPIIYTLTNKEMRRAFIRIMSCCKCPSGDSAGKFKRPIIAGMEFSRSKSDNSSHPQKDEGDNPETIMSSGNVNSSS

[18] = molecular target: T3, Alkaline phosphatase, tissue-nonspecific isozyme (Homo sapiens, UniProt P05186); assay: inhibition of tissue-nonspecific alkaline phosphatase – biochemical, dose response (AID 488882); format: functional
T3 sequence (P05186 whole entry): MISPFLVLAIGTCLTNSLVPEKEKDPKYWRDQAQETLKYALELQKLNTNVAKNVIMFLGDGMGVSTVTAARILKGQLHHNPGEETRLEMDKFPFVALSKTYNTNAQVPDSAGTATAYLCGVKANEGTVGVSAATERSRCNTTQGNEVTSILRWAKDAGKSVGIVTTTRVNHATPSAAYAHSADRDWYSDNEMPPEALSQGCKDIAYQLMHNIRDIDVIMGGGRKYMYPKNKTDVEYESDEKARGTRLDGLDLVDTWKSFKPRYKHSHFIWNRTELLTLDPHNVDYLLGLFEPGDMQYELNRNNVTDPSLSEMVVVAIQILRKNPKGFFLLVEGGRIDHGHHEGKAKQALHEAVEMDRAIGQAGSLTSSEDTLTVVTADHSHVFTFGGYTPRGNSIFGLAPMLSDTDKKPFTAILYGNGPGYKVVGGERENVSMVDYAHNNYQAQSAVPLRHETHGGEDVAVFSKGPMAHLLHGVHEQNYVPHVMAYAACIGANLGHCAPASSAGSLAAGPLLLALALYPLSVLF

[19] = molecular target: T4, Intestinal-type alkaline phosphatase (Homo sapiens, UniProt P09923); assay: inhibition of human intestinal alkaline phosphatase – biochemical, luminescent, uHTS hits, set 2, dose response (AID 488793); format: functional
T4 sequence (P09923 whole entry): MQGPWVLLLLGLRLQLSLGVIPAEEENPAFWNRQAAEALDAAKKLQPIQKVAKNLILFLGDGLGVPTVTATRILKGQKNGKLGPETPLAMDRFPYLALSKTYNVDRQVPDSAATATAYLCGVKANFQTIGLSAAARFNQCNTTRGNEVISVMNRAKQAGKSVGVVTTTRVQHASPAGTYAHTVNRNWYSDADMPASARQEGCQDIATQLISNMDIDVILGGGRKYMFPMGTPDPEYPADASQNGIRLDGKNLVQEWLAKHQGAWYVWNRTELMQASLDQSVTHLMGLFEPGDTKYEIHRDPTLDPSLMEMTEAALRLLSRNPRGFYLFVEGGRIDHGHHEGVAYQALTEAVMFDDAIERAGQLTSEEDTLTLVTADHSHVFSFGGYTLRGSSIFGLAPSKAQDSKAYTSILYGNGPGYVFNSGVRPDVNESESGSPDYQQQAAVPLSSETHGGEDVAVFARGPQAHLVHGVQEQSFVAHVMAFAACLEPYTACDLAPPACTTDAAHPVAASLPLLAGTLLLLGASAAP

[20] = molecular target: T4, Intestinal-type alkaline phosphatase; assay: Dose Response confirmation of uHTS hits from a small molecule inhibitors of human intestinal alkaline phosphatase via a luminescent assay. [Related pubchem assays (depositor defined):AID2544, AID2574]; format: functional
[21] = molecular target: Intestinal-type alkaline phosphatase (Mus musculus, UniProt P24822); assay: PubChem AID 488874; format: functional
Chain of Intestinal-type alkaline phosphatase (Mus musculus, UniProt P24822) (P24822 whole entry): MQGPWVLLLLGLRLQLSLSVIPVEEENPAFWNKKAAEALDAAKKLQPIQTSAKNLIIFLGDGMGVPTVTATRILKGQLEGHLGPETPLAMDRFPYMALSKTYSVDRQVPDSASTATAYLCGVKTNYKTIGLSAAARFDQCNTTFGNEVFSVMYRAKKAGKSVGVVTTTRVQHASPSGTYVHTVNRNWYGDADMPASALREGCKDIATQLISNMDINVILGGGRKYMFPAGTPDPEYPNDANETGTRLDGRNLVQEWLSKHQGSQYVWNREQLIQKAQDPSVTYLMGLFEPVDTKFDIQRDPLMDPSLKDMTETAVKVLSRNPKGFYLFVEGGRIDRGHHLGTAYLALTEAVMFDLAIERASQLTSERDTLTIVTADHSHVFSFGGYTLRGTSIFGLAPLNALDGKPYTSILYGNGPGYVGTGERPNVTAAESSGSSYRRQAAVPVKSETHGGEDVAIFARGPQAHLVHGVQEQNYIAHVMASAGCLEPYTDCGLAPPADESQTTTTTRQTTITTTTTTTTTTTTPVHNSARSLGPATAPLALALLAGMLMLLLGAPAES

[22] = system: HEK293; assay: cells; details: Homo sapiens;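 further: cells exposed to compound for 14 hours overnight before viability readout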
[23] = molecular target: Nucleotide-binding oligomerization domain-containing protein 1 (Homo sapiens, UniProt Q9Y239); assay: blockers of NOD1 pathway activity – revised, SAR follow-up (AID 2333); format: functional
[24] = molecular target: Tumor necrosis factor (Homo sapiens, UniProt P01375); assay: analog potency on TNFa NF-kB signaling – cell-based, revised, SAR follow-up (AID 2337); format: functional
Chain of Tumor necrosis factor (P01375 whole entry): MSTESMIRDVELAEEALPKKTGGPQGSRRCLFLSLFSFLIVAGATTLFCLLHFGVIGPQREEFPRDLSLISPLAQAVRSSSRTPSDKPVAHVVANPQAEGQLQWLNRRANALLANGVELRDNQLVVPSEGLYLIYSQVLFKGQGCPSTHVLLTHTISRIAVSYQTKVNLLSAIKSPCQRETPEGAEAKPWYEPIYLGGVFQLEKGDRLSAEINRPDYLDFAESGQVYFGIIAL

[25] = T. cruzi infection blockers in NIH3T3 cells – beta-gal luminescence, NIH3T3 host cells, confirmation (AID 2630); format: functional, cell-based; details: Mus musculus
[26] = system: Trypanosoma cruzi; assay: anti-trypanosomal activity in host cells – cell-based, plate reader, dry powder, set 3, dose response (AID 493197); format: functional
[27] = molecular target: Trypsin (Sus scrofa, UniProt P00761); assay: trypsin protease activity blockade – biochemical, quenched peptide fluorescence, cherry-pick, selectivity assay for Rce1 protease inhibitor project, dose response (AID 488789)
Chain of Trypsin (P00761 whole entry): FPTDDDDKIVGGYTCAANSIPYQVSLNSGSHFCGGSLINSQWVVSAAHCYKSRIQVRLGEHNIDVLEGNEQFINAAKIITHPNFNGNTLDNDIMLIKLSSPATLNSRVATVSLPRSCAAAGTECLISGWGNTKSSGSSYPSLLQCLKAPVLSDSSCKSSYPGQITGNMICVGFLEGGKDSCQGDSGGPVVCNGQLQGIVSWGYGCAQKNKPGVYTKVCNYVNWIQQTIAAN

[28] = molecular target: CAAX prenyl protease 2 (Homo sapiens, UniProt Q9Y256); assay: inhibition of Ras-converting CAAX protease Rce1 – biochemical, yeast membranes, quenched-peptide fluorescence, cherry-pick, dose response (AID 588849)
[29] = molecular target: CAAX prenyl protease 1 (Saccharomyces cerevisiae S288c, UniProt P47154); assay: yeast CAAX protease Ste24 inhibition – biochemical, S. cerevisiae, plate reader, cherry-pick, dose response (AID 488815)

Which results are given for `COc1ccc2c(OC)cc(=O)n(C)c2c1`?
IC50 [1]: > 79.4 µM (inactive); IC50 [2]: > 79.4 µM (inactive); IC50 [3]: > 79.4 µM (inactive)

With `O=C(NC(=S)NNC(=O)c1cc2ccccc2cc1O)c1ccco1` as the molecule, how does the IC50 [4] read?
Its IC50 is > 119 µM (inactive).

And the EC50 [5]?
The EC50 was 2.19 µM (active).

What about the CC50 [6] of the same molecule?
Its CC50 is 14.4 µM (active).

What about the IC50 [7] of the same molecule?
The IC50 was > 40.6 µM (inactive).

What about the IC50 [8] of the same molecule?
The IC50 was > 119 µM (inactive).

What about the EC50 [9] of the same molecule?
Its EC50 is > 160 µM (inactive).

With `CCn1c(SCc2ccccc2)nnc1-c1cccs1` as the molecule, how does the IC50 [10] read?
The IC50 was 2.36 µM (active).

What about the IC50 [11] of the same molecule?
The IC50 was 3.63 µM (active).

Which AC50 [12] does the source give for `Cc1ccc(-c2ccc(OC(=O)c3ccc(O)nc3)c(C)c2)cc1` here?
The AC50 was 29.1 µM (active).

What about the AC50 [13] of the same molecule?
The AC50 was 17.5 µM (active).

Which results are given for `COc1cccc(OC)c1NC(=O)c1ccc(-c2cc(Cl)ccc2Cl)o1`?
IC50 [14]: 10.5 µM (inactive); IC50 [15]: 20.7 µM (inactive); IC50 [16]: > 25 µM (inactive); IC50 [17]: > 25 µM (inactive)

What does the source list for `O=C(/C=C/c1ccccc1O)c1ccco1`?
IC50 [18]: 71.8 µM (active); IC50 [19]: 75.8 µM (active); IC50 [20]: 47.6 µM (inactive); IC50 [21]: 62.9 µM (active)

Which IC50 [22] does the source give for `COc1ccc(N2CCN(S(=O)(=O)c3ccc4c(c3)CC(C)N4C(C)=O)CC2)cc1` (centres undefined) here?
Its IC50 is > 20 µM (inactive).

And the IC50 [23]?
Its IC50 is 3.63 µM (active).

What about the IC50 [24] of the same molecule?
The IC50 was 4.3 µM (active).

Which EC50 [25] does the source give for `COc1ccc(CN2CCCC(C(=O)N3CCCC3)C2)c(OC)c1OC` (centres undefined) here?
Its EC50 is 0.042 µM (active).

What about the AC50 [26] of the same molecule?
The AC50 was 1.01 µM (active).

Which AC50 [27] does the source give for `CCN(CC)CCn1c2ccccc2c2cnc(/N=C/N(C)C)c(C#N)c21` here?
Its AC50 is 18 µM (active).

And the AC50 [28]?
Its AC50 is 11.4 µM (active).

What about the AC50 [29] of the same molecule?
The AC50 was 4.5 µM (active).
